In patent US11286268B1, “EIF4E-inhibiting compounds and methods” (EFFECTOR THERAPEUTICS, INC., priority 2019, dated 2022) one finds IC50 data, which are given here for 46 compounds.

Like-named read-outs stand apart in the source and are kept apart here.

The assay addresses recombinant eIF4E (Homo sapiens (Human), UniProt P06730). The assay can be described thus: Fluorescence polarization competition assay for eIF4E binding potency. In short, it runs like this: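 Protein and fluorescent cap-analog probe (EDA-m7GDP-ATTO-550) were mixed first for 5 min, after which serially diluted compound was added to final 75 nM eIF4E, 20 nM probe, 1% DMSO. Reactions equilibrated 30 min at room temperature before polarization was measured.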

The mark [1] stands for this setting: fluorescence polarization competition, 75 nM recombinant eIF4E, 20 nM EDA-m7GDP-ATTO-550, IC50 class, read-out: elF4E FP.
Setting [2] is: inhibition of eIF4E/EDA-m7GDP-ATTO-550 binding by 50%, Table 4B calculated values, read-out: IC50.
[3] abbreviates: inhibition of eIF4E/EDA-m7GDP-ATTO-550 binding, calculated IC50 values, Table 4B, read-out: IC50.

recombinant eIF4E, sequence (P06730 whole entry): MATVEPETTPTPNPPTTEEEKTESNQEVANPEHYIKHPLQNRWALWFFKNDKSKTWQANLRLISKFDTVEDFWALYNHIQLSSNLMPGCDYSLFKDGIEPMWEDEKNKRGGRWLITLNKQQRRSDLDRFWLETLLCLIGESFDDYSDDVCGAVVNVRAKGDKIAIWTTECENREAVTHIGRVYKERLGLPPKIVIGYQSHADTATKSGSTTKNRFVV

`C#Cc1c(-c2cc(Cl)ccc2OCCn2c(C)nc3ccc(C(F)F)c(C#N)c3c2=O)ccnc1C(=O)O` [compound 57]: the IC50 is under 50 nM under setting [1] and 12.8 nM under setting [2].

Take `Cc1nc2cnc(N3CCN(C4CC4)CC3(C)C)c(C#N)c2c(=O)n1CC#Cc1ccc(Cl)cc1-c1ccnc2c(C(=O)O)csc12` [compound 1102]: the IC50 by setting is: under setting [1], under 50 nM; under setting [2], 19.2 nM.

On to `Cc1cc(-c2cc(Cl)ccc2OCCn2c(C)nc3c(C)nc(-c4cc(F)ccc4C)c(C#N)c3c2=O)c2scc(C(=O)O)c2n1` [compound 927], for which the IC50 is under 50 nM under setting [1] and 6.34 nM under setting [2].

With `CCN(c1ncc2nc(C)n(CC#Cc3ccc(Cl)cc3-c3ccnc4c(C(=O)NS(=O)(=O)C5COC5)csc34)c(=O)c2c1C#N)C1CCN([C@H]2C[C@H](OC(F)F)C2)CC1` [compound 1768], the IC50 under setting [3] is 31.3 nM.

Consider `CCN(c1ncc2nc(C)n(CC#Cc3ccc(Cl)cc3-c3ccnc4c(C(=O)O)csc34)c(=O)c2c1C#N)C1CCN([C@H]2C[C@H](F)C2)CC1` [compound 1795], for which the IC50 under setting [3] is 8.96 nM.

For `Cc1nc2cc(C(F)(F)F)c(N3CCN(C)CC3)c(C#N)c2c(=O)n1CCOc1ccc(Cl)cc1-c1ccccc1` [compound 833], the IC50 reads like this: under setting [1], 50 to 1000 nM; under setting [2], 111 nM.

For `Cc1nc2c(F)cc(C(F)F)c(C#N)c2c(=O)n1CCOc1ccc(Cl)cc1-c1ccnc2c(C(=O)NS(C)(=O)=O)csc12` [compound 1945], under setting [3], the IC50 was 44.9 nM.

As for `Cc1cc(-c2cc(Cl)ccc2OCCn2c(C)nc3cc(Cl)c(CCN(C)C)c(C#N)c3c2=O)c2scc(C(=O)O)c2n1` [compound 609], the IC50 reads like this: under setting [1], under 50 nM; under setting [2], 33.1 nM.

Turning to `Cc1cc(-c2cc(Cl)ccc2OCCn2c(C)nc3c(ccc4cnncc43)c2=O)c2scc(C(=O)O)c2n1` [compound 671], the IC50 was 50 to 1000 nM under setting [1] and 77.7 nM under setting [2].

As for `Cc1nc2cnc(N(C)C3CCN(C4CC(F)(F)C4)CC3)c(C#N)c2c(=O)n1CC#Cc1ccc(Cl)cc1-c1ccnc2c(C(=O)NS(=O)(=O)c3ccccn3)csc12` [compound 1109], the IC50 reads like this: under setting [1], under 50 nM; under setting [2], 13.4 nM.

As for `Cc1nc2cnc(N(C)C3CCN(CC(F)(F)F)CC3)c(C#N)c2c(=O)n1CC#Cc1ccc(Cl)cc1-c1ccnc2c(C(=O)NS(=O)(=O)c3ccccc3)csc12` [compound 1548], the IC50 under setting [3] is 36.2 nM.

For `Cc1nc2cnc(N3CC4(C3)CN(C3CC(F)(F)C3)C4)c(C#N)c2c(=O)n1CCOc1ccc(Cl)cc1-c1ccnc2c(C(=O)O)csc12` [compound 1475], the IC50 under setting [3] was 7.2 nM.

In the case of `Cc1nc2cnc(N3CCN(CC(C(F)(F)F)C(F)(F)F)CC3)c(C#N)c2c(=O)n1CCOc1ccc(Cl)cc1-c1ccnc2c(C(=O)O)csc12` [compound 1359], the IC50 under setting [3] is 39.7 nM.

Turning to `Cc1cc(-c2c(C(F)(F)F)cc3nc(C)n(CCOc4ccc(Cl)cc4-c4cc(C)nc5c(C(=O)O)csc45)c(=O)c3c2C#N)cc(CF)n1` [compound 934], the IC50 under setting [1] is under 50 nM and the IC50 under setting [2] was 13.6 nM.

On to `Cc1cc(-c2cc(Cl)ccc2OCCn2c(C)nc3cc(C(F)(F)F)c(C4CCOCC4)c(C#N)c3c2=O)c2scc(C(=O)O)c2n1` [compound 431], for which the IC50 reads like this: under setting [1], 50 to 1000 nM; under setting [2], 226 nM.

Take `Cc1c(CC#Cc2ccc(Cl)cc2-c2ccnc3c(C(=O)O)csc23)c(=O)c2c(C#N)cc(C(F)(F)F)cc2n1C` [compound 665]: the IC50 under setting [1] was under 50 nM and the IC50 under setting [2] is 16.5 nM.

As to `COC(=O)c1csc2c(-c3cc(Cl)ccc3C#CCn3c(C)nc4cnc(N(C)C5CCN(CC(C)(F)F)CC5)c(C#N)c4c3=O)ccnc12` [compound 980], the IC50 by setting is: under setting [1], under 50 nM; under setting [2], 15.6 nM.

For `Cc1nc2c(F)c(C(F)(F)F)cc(C#N)c2c(=O)n1CCOc1ccc(Cl)cc1-c1ccnc2c(C(=O)O)csc12` [compound 294], the IC50 is under 50 nM under setting [1] and 22.9 nM under setting [2].

`Cc1cc(-c2cc(Cl)ccc2OCCn2c(C)nc3cnc(N4CCN(C)CC4)c(C#N)c3c2=O)c2scc(C(=O)O)c2n1` [compound 1145]: the IC50 was under 50 nM under setting [1] and 33.1 nM under setting [2].

As for `Cc1nc2cncc(C#N)c2c(=O)n1CCOc1ccc(Cl)cc1-c1cccc(C(=O)O)c1` [compound 1982], the IC50 under setting [3] is 36.4 nM.

In the case of `Cc1nc2cnc(N3CCC(N(CC(F)F)C4COC4)CC3)c(C#N)c2c(=O)n1CC#Cc1ccc(Cl)cc1-c1ccnc2c(C(=O)O)csc12` [compound 1553], under setting [3], the IC50 is 12.9 nM.

Turning to `Cc1cc(-c2cc(Cl)ccc2OCCn2c(C)nc3cc(F)c(-c4cnc(C)s4)c(C#N)c3c2=O)c2scc(C(=O)O)c2n1` [compound 921], the IC50 under setting [1] was 50 to 1000 nM and the IC50 under setting [2] was 69.6 nM.

For `Cc1nc2cc(C(F)(F)F)c(CN(C)C)c(C#N)c2c(=O)n1CC#Cc1ccc(Cl)cc1-c1ccnc2c(C(=O)O)csc12` [compound 553], the IC50 was under 50 nM under setting [1] and 13.4 nM under setting [2].

`Cc1cc(-c2cc(Cl)ccc2OCCn2c(C)nc3c(F)cc(Cl)c(C#N)c3c2=O)c2scc(C(=O)O)c2n1` [compound 588]: the IC50 is under 50 nM under setting [1] and 49.3 nM under setting [2].

Turning to `N#Cc1cc2c(=O)n(CCOc3ccc(Cl)cc3-c3cccc(C(=O)O)c3)c(C(F)F)nc2cn1` [compound 1996], the IC50 under setting [3] is 189 nM.

On to `Cc1cc(-c2cc(Cl)ccc2OCCn2c(C)nc3cc(C(F)(F)F)c(-c4ncc(F)cn4)c(C#N)c3c2=O)c2scc(C(=O)O)c2n1` [compound 966], for which the IC50 is under 50 nM under setting [1] and 3.58 nM under setting [2].

With `Cc1cc(O)c(-c2c(C(F)(F)F)cc3nc(C)n(CCOc4ccc(Cl)cc4-c4cc(C)nc5c(C(=O)O)csc45)c(=O)c3c2C#N)cn1` [compound 1389], under setting [3], the IC50 was 1190 nM.

In the case of `Cc1nc2cnc(N3CCN(C)C4CC43)c(C#N)c2c(=O)n1CCOc1ccc(Cl)cc1-c1cccc2c(C(=O)O)csc12` (centres unmarked) [compound 2020], the IC50 under setting [3] was 33 nM.

With `Cc1sc2c(-c3cc(Cl)ccc3OCCn3c(C)nc4cc(C(F)(F)F)c(C)c(C#N)c4c3=O)cn(C)c(=O)c2c1C(=O)O` [compound 899], the IC50 is under 50 nM under setting [1] and 7.44 nM under setting [2].

Consider `C#Cc1c(C(=O)O)cccc1-c1cc(Cl)ccc1OCCn1cnc2cnc(C#N)cc2c1=O` [compound 127], for which the IC50 reads like this: under setting [1], 50 to 1000 nM; under setting [2], 77 nM.

With `Cc1cc(-c2cc(Cl)ccc2OCCn2c(C)nc3cc(C(F)(F)F)c4c(c3c2=O)C(=O)CC4)c2scc(C(=O)O)c2n1` [compound 1974], under setting [3], the IC50 is 51.3 nM.

Take `Cc1cc(-c2cc(Cl)ccc2OCCn2c(C)nc3cc(C(F)(F)F)c(OC4CC4)c(C#N)c3c2=O)c2scc(C(=O)O)c2n1` [compound 1034]: the IC50 is under 50 nM under setting [1] and 37.9 nM under setting [2].

For the compound `Cc1nc2cc(C(F)(F)F)c(N3CCN(C)CC3)c(C#N)c2c(=O)n1CCOc1ccc(Cl)cc1-c1ccnc2ccsc12` [compound 705], the IC50 was under 50 nM under setting [1] and 19.1 nM under setting [2].

With `Cc1nc2cnc(N(C)C3CCN(CC(F)F)CC3)c(C#N)c2c(=O)n1CC#Cc1ccc(Cl)cc1-c1ccnc2c(C(=O)NS(=O)(=O)c3ccccn3)csc12` [compound 1566], under setting [3], the IC50 is 4.39 nM.

As to `N#Cc1cc(C(F)(F)F)cc2c(Cl)c(Cl)n(CCOc3ccc(Cl)cc3-c3ccnc4c(C(=O)O)csc34)c(=O)c12` [compound 46], the IC50 by setting is: under setting [1], 50 to 1000 nM; under setting [2], 67.2 nM.

In the case of `Cc1nc2cc(C(F)(F)F)c(N3CCN(C)CC3)c(C#N)c2c(=O)n1CCOc1ccc(Cl)cc1-c1ccnc2cc(C#N)sc12` [compound 1245], the IC50 runs as follows: under setting [1], under 50 nM; under setting [3], 15.6 nM.

For `Cc1nc2cnc(N(C)C3C[C@@H]4C[C@H]3CN4CC(C)(F)F)c(C#N)c2c(=O)n1CC#Cc1ccc(Cl)cc1-c1ccnc2c(C(=O)O)csc12` (some centres unmarked) [compound 1545], the IC50 under setting [3] was 27.5 nM.

For `Cc1nc2cnc(N3CCN(CC(C)(C)C(F)(F)F)CC3)c(C#N)c2c(=O)n1CCOc1ccc(Cl)cc1-c1ccnc2c(C(=O)O)csc12` [compound 1472], the IC50 under setting [3] was 28.9 nM.

Take `Cc1nc2cnc(N(C)C3CCOCC3)c(C#N)c2c(=O)n1CC#Cc1ccc(Cl)cc1-c1ccnc2c(C(=O)O)csc12` [compound 1528]: the IC50 under setting [3] is 6.31 nM.

For `Cc1ccc(-c2c(C(F)(F)F)cc3nc(C)n(CCOc4ccc(Cl)cc4-c4cc(C)nc5c(C(=O)O)csc45)c(=O)c3c2C#N)nn1` [compound 967], the IC50 under setting [1] is under 50 nM and the IC50 under setting [2] was 12.2 nM.

`Cc1cc(-c2cc(Cl)ccc2OCCn2c(C)nc3cnc(C4CC(F)(F)C4)c(C#N)c3c2=O)c2scc(C(=O)O)c2n1` [compound 928]: the IC50 is, setting by setting: under setting [1], under 50 nM; under setting [2], 38.7 nM.

Turning to `Cc1cc(-c2cc(Cl)ccc2OCCn2c(C)nc3cc(Cl)c(N4CCC4(C)C)c(C#N)c3c2=O)c2scc(C(=O)O)c2n1` [compound 918], the IC50 reads like this: under setting [1], under 50 nM; under setting [2], 4.37 nM.

`CCN(c1ncc2nc(C)n(CC#Cc3ccc(Cl)cc3-c3ccnc4c(C(=O)NS(=O)(=O)c5ccncc5)csc34)c(=O)c2c1C#N)C1CCN(C2COC2)CC1` [compound 1740]: the IC50 under setting [3] was 12.6 nM.

With `Cc1ccc(F)c(-c2ncc3cc(C)n(CCOc4ccc(Cl)cc4-c4cc(C)nc5c(C(=O)O)csc45)c(=O)c3c2C#N)n1` [compound 1000], the IC50 runs as follows: under setting [1], under 50 nM; under setting [2], 16.7 nM.

For `Cc1nc2cnc(N(C)[C@H]3CC[C@@H](N(C)CC(F)F)CC3)c(C#N)c2c(=O)n1CC#Cc1ccc(Cl)cc1-c1ccnc2c(C(=O)O)csc12` [compound 1896], the IC50 under setting [3] was 12.2 nM.

In the case of `Cc1nc2cnc(N3CCN(CCOC(F)(F)F)CC3)c(C#N)c2c(=O)n1CC#Cc1ccc(Cl)cc1-c1ccnc2c(C(=O)O)csc12` [compound 1161], the IC50 was under 50 nM under setting [1] and 19.5 nM under setting [2].
